Our source for the IC50 values is patent publication US8791123B2, “Substituted pyrazolo[1,5-a]pyrimidine compounds as Trk kinase inhibitors” (Array Biopharma, Inc., priority 2009, dated 2014).

Counter-ions that a name gives are not always drawn. Like-named read-outs stand apart in the source and are kept apart here.

Assay [1] deals with TrkA (histidine-tagged recombinant human TrkA, cytoplasmic domain) (Homo sapiens (Human), UniProt P04629). Description: TrkA ELISA Assay. It is filed as biochemical. As to conditions: Table 1; ELISA, 500 μM ATP; read-out: TrkA Enzyme IC50. In short, it runs like this:
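ELISA read-out: a peroxidase-linked anti-phosphotyrosine antibody (PY20, 0.2 μg/mL) with TMB substrate, absorbance at 450 nm after acid stop. The plate-bound substrate was poly(Glu,Ala,Tyr; 6:3:1) at 0.025 mg/mL, phosphorylated by the recombinant His-tagged human TrkA cytoplasmic domain in the presence of inhibitors.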
A general note: In an ELISA, binding on a coated surface is turned into a signal by an enzyme label.

Another assay has as its target Human Jak2 kinase domain (Homo sapiens (Human), UniProt O60674). The assay is described as follows: Jak2 Inhibition Assay (Omnia kinase assay). It is filed as biochemical. The note with it: read-out: Jak2 Enzyme IC50.
The mark [2] stands for this setting: Table 1, 500 μM ATP, >1000 nM when >50% inhibition not observed at 1000 nM.

Sequence of Human Jak2 kinase domain (O60674 808-1132): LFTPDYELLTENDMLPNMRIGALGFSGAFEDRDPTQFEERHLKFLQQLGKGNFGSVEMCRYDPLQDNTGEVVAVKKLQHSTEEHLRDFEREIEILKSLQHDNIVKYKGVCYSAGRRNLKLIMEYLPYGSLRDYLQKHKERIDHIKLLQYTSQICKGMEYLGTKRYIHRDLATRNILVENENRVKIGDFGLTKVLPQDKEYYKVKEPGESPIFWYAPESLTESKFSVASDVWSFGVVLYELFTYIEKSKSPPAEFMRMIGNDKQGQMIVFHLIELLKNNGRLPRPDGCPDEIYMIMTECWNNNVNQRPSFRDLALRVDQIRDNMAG
Sequence of TrkA (histidine-tagged recombinant human TrkA, cytoplasmic domain) (P04629 440-796): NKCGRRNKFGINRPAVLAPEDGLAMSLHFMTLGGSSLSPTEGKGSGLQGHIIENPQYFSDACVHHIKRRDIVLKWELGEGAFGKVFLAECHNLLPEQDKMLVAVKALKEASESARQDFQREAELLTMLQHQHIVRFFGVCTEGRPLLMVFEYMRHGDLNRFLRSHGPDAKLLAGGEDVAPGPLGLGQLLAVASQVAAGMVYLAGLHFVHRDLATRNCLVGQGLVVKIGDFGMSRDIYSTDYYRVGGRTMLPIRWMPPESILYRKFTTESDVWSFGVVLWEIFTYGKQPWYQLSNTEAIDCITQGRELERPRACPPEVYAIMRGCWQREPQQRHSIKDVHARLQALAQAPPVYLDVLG

For the compound `O=C(NC[C@H](O)CO)c1cnn2ccc(N3CCC[C@@H]3c3cc(F)ccc3C(F)(F)F)nc12` [Example 62, N—((S)-2,3-dihydroxypropyl)-5-((R)-2-(5-fluoro-2-(trifluoromethyl)phenyl)pyrrolidin-1-yl)pyrazolo[1,5-a]pyrimidine-3-carboxamide], the IC50 (in general, the point on the concentration scale where inhibition reaches its midpoint) in assay [1] was 2.53 nM; at Human Jak2 kinase domain (setting [2]), above 1000 nM.
Turning to `C[C@@H](O)CNC(=O)c1cnn2ccc(N3CCCC3c3cc(F)ccc3F)nc12` (stereo in doubt) [Example 167, 5-((R)-2-(2,5-difluorophenyl)pyrrolidin-1-yl)-N-(2-hydroxypropyl)pyrazolo[1,5-a]pyrimidine-3-carboxamide], the figures for the IC50 (in assay [1]; on Human Jak2 kinase domain (setting [2])) were 2.2 nM and above 1000 nM, respectively.
The matching figures for `Cc1cccnc1NC(=O)c1cnn2ccc(N3CCC[C@@H]3c3cc(F)ccc3F)nc12` [Example 3, (R)-5-(2-(2,5-difluorophenyl)pyrrolidin-1-yl)-N-(3-methylpyridin-2-yl)pyrazolo[1,5-a]pyrimidine-3-carboxamide]: 2.3 nM and above 1000 nM.
As for `COCCNC(=O)c1cnn2ccc(N3CCC[C@@H]3c3cc(F)ccc3F)nc12` [Example 172, 5-((R)-2-(2,5-difluorophenyl)pyrrolidin-1-yl)-N-(2-methoxyethyl)pyrazolo[1,5-a]pyrimidine-3-carboxamide], the IC50 is 2.5 nM in assay [1] and above 1000 nM on Human Jak2 kinase domain (setting [2]).
In the case of `COc1ncc(F)cc1[C@H]1CCCN1c1ccn2ncc(C(=O)NOCCOC(C)(C)C)c2n1` [Example 152, (R)-N-(2-tert-butoxyethoxy)-5-(2-(5-fluoro-2-methoxypyridin-3-yl)pyrrolidin-1-yl)pyrazolo[1,5-a]pyrimidine-3-carboxamide], the IC50 in assay [1] is 18.1 nM; at Human Jak2 kinase domain (setting [2]) it was above 1000 nM.
On to `CC(C)(C#N)NC(=O)c1cnn2ccc(N3CCC[C@@H]3c3cc(F)ccc3F)nc12` [Example 38, (R)—N-(2-cyanopropan-2-yl)-5-(2-(2,5-difluorophenyl)pyrrolidin-1-yl)pyrazolo[1,5-a]pyrimidine-3-carboxamide], for which the 50% inhibitory concentration (IC50) in assay [1] was 1.3 nM; on Human Jak2 kinase domain it was above 1000 nM.
On to `CC(C)(C)NC(=O)c1cnn2ccc(N3CCC[C@@H]3c3cccc(F)c3)nc12` [Example 36, (R)—N-tert-butyl-5-(2-(3-fluorophenyl)pyrrolidin-1-yl)pyrazolo[1,5-a]pyrimidine-3-carboxamide], for which the figures for the IC50 (in assay [1]; at Human Jak2 kinase domain (setting [2])) were 2.1 nM and above 1000 nM, respectively.
The like results for `NCCCNC(=O)c1cnn2ccc(N3CCC[C@@H]3c3cc(F)c[nH]c3=O)nc12` [Example 142, (R)—N-(3-aminopropyl)-5-(2-(5-fluoro-2-oxo-1,2-dihydropyridin-3-yl)pyrrolidin-1-yl)pyrazolo[1,5-a]pyrimidine-3-carboxamide] were, in that order, 12.7 nM and above 1000 nM.
The like results for `O=C(NC[C@@H](O)CO)c1cnn2ccc(N3CCC[C@@H]3c3cc(F)ccc3C(F)(F)F)nc12` [Example 63, N—((R)-2,3-dihydroxypropyl)-5-((R)-2-(5-fluoro-2-(trifluoromethyl)phenyl)pyrrolidin-1-yl)pyrazolo[1,5-a]pyrimidine-3-carboxamide] were, in that order, 4.55 nM and above 1000 nM.
`O=C(NC1CC1)c1cnn2ccc(N3CCC[C@@H]3c3cccc(F)c3)nc12` [Example 37, (R)—N-cyclopropyl-5-(2-(3-fluorophenyl)pyrrolidin-1-yl)pyrazolo[1,5-a]pyrimidine-3-carboxamide]: the IC50 in assay [1] is 1.65 nM; on Human Jak2 kinase domain (setting [2]), above 1000 nM.
The matching figures for `CNC(=O)c1cnn2ccc(N3CCC[C@@H]3c3cc(F)cnc3C)nc12` [Example 186, (R)-5-(2-(5-fluoro-2-methylpyridin-3-yl)pyrrolidin-1-yl)-N-methylpyrazolo[1,5-a]pyrimidine-3-carboxamide]: 57.1 nM and above 1000 nM.
On to `O=C(NC1CCOCC1)c1cnn2ccc(N3CCC[C@@H]3c3cncc(F)c3)nc12` [Example 72, (R)-5-(2-(5-fluoropyridin-3-yl)pyrrolidin-1-yl)-N-(tetrahydro-2H-pyran-4-yl)pyrazolo[1,5-a]pyrimidine-3-carboxamide], for which the IC50 in assay [1] was 44.4 nM; on Human Jak2 kinase domain (setting [2]) it was above 1000 nM.
For the compound `Cn1cc(F)cc([C@H]2CCCN2c2ccn3ncc(C(=O)NCC4CC4)c3n2)c1=O` [Example 232, (R)-N-(cyclopropylmethyl)-5-(2-(5-fluoro-1-methyl-2-oxo-1,2-dihydropyridin-3-yl)pyrrolidin-1-yl)pyrazolo[1,5-a]pyrimidine-3-carboxamide], the IC50 in assay [1] was 4.5 nM; on Human Jak2 kinase domain (setting [2]) it was above 1000 nM.
The like results for `O=C(N[C@H]1CCC[C@H]1O)c1cnn2ccc(N3CCC[C@@H]3c3cncc(F)c3)nc12` [Example 104, 5-((R)-2-(5-fluoropyridin-3-yl)pyrrolidin-1-yl)-N-((1S,2R)-2-hydroxycyclopentyl)pyrazolo[1,5-a]pyrimidine-3-carboxamide] were, in that order, 83.1 nM and above 1000 nM.
On to `O=C(NC1CC1)c1cnn2ccc(N3CCC[C@@H]3c3cc(F)ccc3OCC(O)CO)nc12` (stereo partly drawn) [Example 210, N-cyclopropyl-5-((2R)-2-(2-(2,3-dihydroxypropoxy)-5-fluorophenyl)pyrrolidin-1-yl)pyrazolo[1,5-a]pyrimidine-3-carboxamide], for which the IC50 in assay [1] is 3.3 nM; on Human Jak2 kinase domain (setting [2]) it was above 1000 nM.
The like results for `CC(C)(CO)CNC(=O)c1cnn2ccc(N3CCC[C@@H]3c3cncc(F)c3)nc12` [Example 125, (R)-5-(2-(5-fluoropyridin-3-yl)pyrrolidin-1-yl)-N-(3-hydroxy-2,2-dimethylpropyl)pyrazolo[1,5-a]pyrimidine-3-carboxamide] were, in that order, 12.8 nM and above 1000 nM.
The like results for `COc1ncc(F)cc1[C@H]1CCCN1c1ccn2ncc(C(=O)N[C@H]3CC[C@H](O)C3)c2n1` [Example 154, 5-((R)-2-(5-fluoro-2-methoxypyridin-3-yl)pyrrolidin-1-yl)-N-((1S,3S)-3-hydroxycyclopentyl)pyrazolo[1,5-a]pyrimidine-3-carboxamide] were, in that order, 1.3 nM and 524 nM.
The like results for `CC(C)(O)CNC(=O)c1cnn2ccc(N3CCC[C@@H]3c3cncc(F)c3)nc12` [Example 111, (R)-5-(2-(5-fluoropyridin-3-yl)pyrrolidin-1-yl)-N-(2-hydroxy-2-methylpropyl)pyrazolo[1,5-a]pyrimidine-3-carboxamide] were, in that order, 37.8 nM and above 1000 nM.
For the compound `O=C(c1cnn2ccc(N3CCC[C@@H]3c3cncc(F)c3)nc12)N1CC(O)C1` [Example 108, (R)-(5-(2-(5-fluoropyridin-3-yl)pyrrolidin-1-yl)pyrazolo[1,5-a]pyrimidin-3-yl)(3-hydroxyazetidin-1-yl)methanone], the IC50 in assay [1] was 1190 nM; on Human Jak2 kinase domain (setting [2]), above 1000 nM.
The like results for `O=C(NCCO)c1cnn2ccc(N3CCC[C@@H]3c3cncc(F)c3)nc12` [Example 112, (R)-5-(2-(5-fluoropyridin-3-yl)pyrrolidin-1-yl)-N-(2-hydroxyethyl)pyrazolo[1,5-a]pyrimidine-3-carboxamide] were, in that order, 30.9 nM and above 1000 nM.
The matching figures for `Cc1ncc(F)cc1[C@H]1CCCN1c1ccn2ncc(C(=O)NC[C@@H](C)O)c2n1` [Example 189, (R)-5-(2-(5-fluoro-2-methylpyridin-3-yl)pyrrolidin-1-yl)-N-((R)-2-hydroxypropyl)pyrazolo[1,5-a]pyrimidine-3-carboxamide]: 76.4 nM and above 1000 nM.
The like results for `C[C@@H](O)[C@H](CO)NC(=O)c1cnn2ccc(N3CCC[C@@H]3c3cc(F)ccc3F)nc12` [Example 174, 5-((R)-2-(2,5-difluorophenyl)pyrrolidin-1-yl)-N-((2S,3R)-1,3-dihydroxybutan-2-yl)pyrazolo[1,5-a]pyrimidine-3-carboxamide] were, in that order, 16.3 nM and above 1000 nM.
For the compound `CC1(O)CN(C(=O)c2cnn3ccc(N4CCC[C@@H]4c4cncc(F)c4)nc23)C1` [Example 92, (R)-(5-(2-(5-fluoropyridin-3-yl)pyrrolidin-1-yl)pyrazolo[1,5-a]pyrimidin-3-yl)(3-hydroxy-3-methylazetidin-1-yl)methanone], the figures for the IC50 (in assay [1]; at Human Jak2 kinase domain (setting [2])) were 1010 nM and above 1000 nM, respectively.
Turning to `COc1ccc(F)cc1[C@H]1CCCN1c1ccn2ncc(C(=O)NCCN3CCOCC3)c2n1` [Example 54, (R)-5-(2-(5-fluoro-2-methoxyphenyl)pyrrolidin-1-yl)-N-(2-morpholinoethyl)pyrazolo[1,5-a]pyrimidine-3-carboxamide], the IC50 in assay [1] was 2.25 nM; at Human Jak2 kinase domain, above 1000 nM.
Turning to `O=C(NCCc1c[nH]cn1)c1cnn2ccc(N3CCC[C@@H]3c3cc(F)ccc3F)nc12` [Example 25, (R)—N-(2-(1H-imidazol-4-yl)ethyl)-5-(2-(2,5-difluorophenyl)pyrrolidin-1-yl)pyrazolo[1,5-a]pyrimidine-3-carboxamide], the results for the IC50 (in assay [1]; on Human Jak2 kinase domain (setting [2])) were 0.4 nM and above 1000 nM, respectively.
The like results for `O=C(c1cnn2ccc(N3CCC[C@@H]3c3cc(F)ccc3F)nc12)N1CC[C@@H](O)C1` [Example 19, (5-((R)-2-(2,5-difluorophenyl)pyrrolidin-1-yl)pyrazolo[1,5-a]pyrimidin-3-yl)((R)-3-hydroxypyrrolidin-1-yl)methanone] were, in that order, 74.2 nM and above 1000 nM.
Consider `O=C(N[C@@H]1CCNC[C@@H]1F)c1cnn2ccc(N3CCC[C@@H]3c3cc(F)ccc3F)nc12` [Example 61, 5-((R)-2-(2,5-difluorophenyl)pyrrolidin-1-yl)-N-((3S,4R)-3-fluoropiperidin-4-yl)pyrazolo[1,5-a]pyrimidine-3-carboxamide hydrochloride], for which the IC50 in assay [1] came to 1.95 nM; at Human Jak2 kinase domain it was 699 nM.
